The test system of assay [1] is ex vivo stimulated LTB4 production. Nature of the assay: Murine arachidonic acid-induced inflammation model: ex vivo stimulated LTB4 production in blood. The settings on record: Mus musculus; 30 mg/kg oral gavage, female Balb/c mice; blood taken 3 h after arachidonic acid, stimulated ex vivo with A23187; read-out: % Inh. LTB4. The method, then: (§1) Murine Arachidonic Acid-Induced Inflammation Model
(§2) LTA4H inhibitor compounds of the present invention were dissolved in 20% cyclodextran/H2O at a concentration of 3 mg/mL. The solutions were administered by oral gavage to female Balb/c mice weighing approximately 20 grams each (0.2 mL per mouse, 30 mg of LTA4H inhibitor compound per kg). Sixty minutes after being administered an LTA4 inhibitor, each mouse received topical application of 20 μL of arachidonic acid (100 mg/mL in acetone) to the left ear and 20 μL of acetone only to the right ear. After 3 h, the mice were sacrificed, blood was withdrawn in heparinized syringes, and 8 mm ear biopsies were taken. Ear biopsies were weighed to determine edema and then frozen at −80° C. until needed for determination of neutrophil influx.
One hundred-microliter aliquots of heparinized blood were added to wells of a microtiter plate, along with equal volumes of RPMI-1640 medium, and calcium ionophore A23187 was added to each sample well (final concentration=[…]). The microtiter plate contents were incubated for 10 min at 37° C. in a humidified incubator. The reaction was terminated by centrifugation (833×g, 10 min at 4° C.). Supernatants were analyzed for LTB4 by a commercially available enzyme-linked immunoassay (Cayman Chemical Co.) in accordance with the manufacturer's instructions. The percent inhibition of ex vivo stimulated LTB4 production (% Inh. LTB4) was determined by comparison to animals treated identically except that the solution admininstered by oral gavage was devoid of inhibitor compound.

Assay [2] relates to neutrophil influx (myeloperoxidase, MPO). Nature of the assay: Murine arachidonic acid-induced inflammation model: neutrophil influx in ear (myeloperoxidase activity). Particulars: Mus musculus, read-out: % Inh. MPO. The class given is in vivo, female Balb/c mice. The method, then:
as §1, §2
Neutrophil influx was quantified by measuring the activity of myeloperoxidase (MPO), a neutrophil-specific enzyme. The ear biopsies were homogenized in 0.5 mL extraction buffer (0.3 M sucrose, 0.22% (w/v) hexadecyl trimethyl ammonium bromide (CTAB), and 2.5 mM citrate prepared from 0.5 M citrate stock solution (pH 5.0)). Debris was removed by centrifugation at 14000×g for 10 min. Aliquots of 10 μL of the resulting supernatant were added to wells of a microtiter plate, along with 90-μL aliquots of dilution buffer (10 mM citrate, 0.22% CTAB), followed by addition of 20 μL TMB liquid substrate system (Sigma Chemical Co.) to each sample well. The microtiter plate contents were held at rt for 1 h. The reaction was stopped by addition of 100 μL 1 M H2SO4 to each sample well, and the myeloperoxidase activity in each sample was determined from the absorbance at 405 nm. The background value from the right ear, treated only with acetone, was subtracted from that for the left ear, treated with arachidonic acid in acetone, for each animal. The percent inhibition of neutrophil influx (% lnh. MPO) by compounds of the invention was determined by comparison to animals treated identically, except that the solution administered by oral gavage was devoid of inhibitor compound.

Setting [3] is: 30 mg/kg oral gavage 60 min before topical arachidonic acid to ear, female Balb/c mice, ear biopsies after 3 h.

Molecules are shown by their SMILES. Where two headings read alike, the source gives them in different places.

For the molecule `CN(C(=O)Oc1ccc(OCCN2CCC(O)(c3ccccc3)CC2)cc1)c1ccccc1` [Example 40, Methyl-phenyl-carbamic acid 4-[2-(4-hydroxy-4-phenyl-piperidin-1-yl)-ethoxy]-phenyl ester], the inhibition at 30 mg/kg in assay [1] was found to be 79%. In addition, the inhibition in vivo at 30 mg/kg in assay [2] (po, 3 h) was found to be 75%.
For `O=C(O)C1CCN(CCc2ccc(OCCc3ccccc3)cc2)CC1` [Example 81, 1-[2-(4-Phenethyloxy-phenyl)-ethyl]-piperidine-4-carboxylic acid], the inhibition at 30 mg/kg in assay [1] was found to be 78%. The inhibition in vivo at 30 mg/kg in assay [2] (setting [3]) amounted to 64%.
The corresponding values for `O=C(O)C1CCN(Cc2ccc(OCCc3ccccc3)cc2)CC1` [Example 96, 1-(4-Phenethyloxy-benzyl)-piperidine-4-carboxylic acid] are 80% and 95%.
Take `O=C1CCCN1C1CCN(Cc2ccc(OCCc3ccccc3)cc2)CC1` [Example 99, 1-[1-(4-Phenethyloxy-benzyl)-piperidin-4-yl]-pyrrolidin-2-one]: the inhibition at 30 mg/kg in assay [1] worked out at 68%. Besides, the inhibition in vivo at 30 mg/kg in assay [2] (setting [3]) came to 17%.
As to `O=C(O)C1CCN(Cc2ccc(OCCCc3ccccc3)cc2)CC1` [Example 112, 1-[4-(3-Phenyl-propoxy)-benzyl]-piperidine-4-carboxylic acid], in assay [1], the inhibition at 30 mg/kg was 91%. Moreover, in assay [2] (setting [3]), the inhibition in vivo at 30 mg/kg came to 79%.
Consider `O=C(O)C1CCN(CCOc2ccc(OCCCc3ccccc3)cc2)CC1` [Example 117, 1-{2-[4-(3-Phenyl-propoxy)-phenoxy]-ethyl}-piperidine-4-carboxylic acid], for which the inhibition at 30 mg/kg in assay [1] amounted to 74%. Also, in assay [2] (setting [3]), the inhibition in vivo at 30 mg/kg is 62%.

Values taken from patent publication US20060223792A1, “Phenyl and pyridyl LTA4H modulators” (priority 2005, published 2006).
